{"source": "patent US11529334B2", "about": "“Pharmaceutical composition for treating or preventing Parkinson's disease comprising STT as an active ingredient” (GACHON UNIVERSITY OF INDUSTRY—ACADEMIC COOPERATION …, priority 2019, dated 2022)", "biological_target": "T1, TPP domain of DUSP10 (Homo sapiens, UniProt Q9Y6W6)", "T1 sequence (Q9Y6W6 321-464 limits assumed)": "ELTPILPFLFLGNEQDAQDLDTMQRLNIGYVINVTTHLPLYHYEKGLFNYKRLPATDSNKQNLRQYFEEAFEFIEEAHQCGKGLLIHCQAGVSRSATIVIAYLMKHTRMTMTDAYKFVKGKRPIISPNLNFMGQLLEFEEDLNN", "assay": "SPR (Surface Plasmon Resonance) assay, Reichert SR7500DC", "type": "binding", "procedure": "SPR (Surface Plasmon Resonance) assay was performed using Reichert SR7500DC system to confirm the presence or absence of interaction between the compounds above and the TPP domain of DUSP10.", "key": {"[1]": {"settings": "Table 1, running buffer 1xPBS, 2% DMSO"}, "[2]": {"settings": "Table 1, running buffer 1xPBS, pH 7.4"}}, "data": [{"smiles": "O=S(=O)(O)CCN1CCOCC1", "note": "[MES]", "values": [{"measurement": "interaction with the TPP domain (in words)", "setting": "SPR", "result": "weak interaction"}, {"measurement": "Ka (association rate)", "setting": "[1]", "result": "2.90(4) M−^1-s−^1"}, {"measurement": "Kd", "setting": "[1]", "result": 12.3, "unit": "mM"}, {"measurement": "Kd (dissociation rate)", "setting": "[1]", "result": "0.0357(6) s−^1"}, {"measurement": "Ka (association rate)", "setting": "[2]", "result": "3.50(5) M−^1-s−^1"}, {"measurement": "Kd", "setting": "[2]", "result": 17.9, "unit": "mM"}, {"measurement": "Kd (dissociation rate)", "setting": "[2]", "result": "0.0627(9) s−^1"}, {"measurement": "Kd", "setting": "Table 2, 0-200 mM analyte", "result": 63, "unit": "mM"}, {"measurement": "Ka", "setting": "Table 2, higher analyte concentrations (MES up to 200 mM, STT up to 10 mM)", "result": "0.152(7) M−^1-s−^1"}, {"measurement": "dissociation rate constant (kd)", "setting": "Table 2, second column headed Ka, higher analyte concentrations", "result": "0.0096(2) s−^1"}]}]}
